Assay results published in the supplement of paper PMC10307832.

Assays:
Test in all cases: relative viability (nuclei count vs DMSO), 5 days (fraction); higher = more cells survive
[1] = compound: O=C(NCCCNc1nc(Nc2cccc(NC(=O)N3CCCC3)c2)ncc1I)c1cccs1 [BX 795] + Cc1nc(NC(=O)N2CCC[C@H]2C(N)=O)sc1-c1ccnc(C(C)(C)C(F)(F)F)c1 [Alpelisib] (partner 2 µM)
Procedure, shortened: (§1)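 Each reported value is a median over duplicate plates. It expresses relative viability: treated-well nuclei count divided by vehicle-well nuclei count. Lung cancer cell lines in 1536-well plates were dosed by pin tool a day after seeding, alone with one drug or with a fixed anchor-drug dose plus five library-drug doses (not always all listed) in √10 steps, and nuclei were counted after 5 days.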

[2] = compound: O=C(NCCCNc1nc(Nc2cccc(NC(=O)N3CCCC3)c2)ncc1I)c1cccs1 [BX 795] + C[C@@H](Oc1cc(-c2cnn(C3CCNCC3)c2)cnc1N)c1c(Cl)ccc(F)c1Cl [Crizotinib] (partner 1 µM)
Procedure, shortened: as §1

[3] = compound: O=C(NCCCNc1nc(Nc2cccc(NC(=O)N3CCCC3)c2)ncc1I)c1cccs1 [BX 795] + Cc1nc(Nc2ncc(C(=O)Nc3c(C)cccc3Cl)s2)cc(N2CCN(CCO)CC2)n1 [Dasatinib] (partner 0.075 µM)
Procedure, shortened: as §1

[4] = compound: O=C(NCCCNc1nc(Nc2cccc(NC(=O)N3CCCC3)c2)ncc1I)c1cccs1 [BX 795] + O=C(c1cc(Cc2n[nH]c(=O)c3ccccc23)ccc1F)N1CCN(C(=O)C2CC2)CC1 [Olaparib] (partner 8 µM)
Procedure, shortened: as §1

[5] = compound: O=C(NCCCNc1nc(Nc2cccc(NC(=O)N3CCCC3)c2)ncc1I)c1cccs1 [BX 795] + NC(=O)Nc1cc(-c2cccc(F)c2)sc1C(=O)N[C@H]1CCCNC1 [AZD7762] (partner 0.2 µM)
Procedure, shortened: as §1

Row | Cell Line | relative viability ([1]; first compound 0.04 µM) | relative viability ([1]; first compound 0.1265 µM) | relative viability ([1]; first compound 0.4 µM) | relative viability ([1]; first compound 1.265 µM) | relative viability ([2]; first compound 0.04 µM) | relative viability ([2]; first compound 0.1265 µM) | relative viability ([2]; first compound 0.4 µM) | relative viability ([2]; first compound 1.265 µM) | relative viability ([3]; first compound 0.04 µM) | relative viability ([3]; first compound 0.1265 µM) | relative viability ([3]; first compound 0.4 µM) | relative viability ([3]; first compound 1.265 µM) | relative viability ([4]; first compound 0.04 µM) | relative viability ([4]; first compound 0.1265 µM) | relative viability ([4]; first compound 0.4 µM) | relative viability ([4]; first compound 1.265 µM) | relative viability ([5]; first compound 0.04 µM) | relative viability ([5]; first compound 0.1265 µM) | relative viability ([5]; first compound 0.4 µM) | relative viability ([5]; first compound 1.265 µM)
1 | NCI-H322M | 0.889 | 0.846 | 0.886 | 1 | 0.906 | 0.959 | 0.711 | 0.912 | 0.256 | 0.254 | 0.295 | 0.28 | 0.978 | 0.821 | 0.577 | 0.885 | 0.62 | 0.532 | 0.555 | 0.753
2 | SK-LU-1 | 1.03 | 0.946 | 0.672 | 0.479 | 0.96 | 0.92 | 0.459 | 0.498 | 0.142 | 0.181 | – | 0.135 | 0.484 | 0.519 | 0.31 | 0.413 | – | – | – | –
3 | PC-3 [JPC-3] | 1.02 | 1.03 | 1.15 | 1.02 | 1.04 | 0.993 | 1.06 | 0.946 | 1.02 | 1.04 | 0.979 | 0.975 | 1.16 | – | 1.04 | 1.09 | 0.809 | – | 0.685 | 0.802
4 | NCI-H727 | 0.577 | 0.763 | 0.583 | 0.376 | 0.868 | 0.986 | 0.634 | 0.492 | 0.376 | 0.318 | 0.386 | 0.58 | 0.725 | 0.72 | 1.02 | 0.685 | 0.614 | 0.535 | 0.671 | 0.531
5 | HARA | 0.752 | 0.82 | 1.2 | 0.605 | 1.21 | 1.06 | 1 | 0.601 | 0.241 | 0.268 | 0.26 | 0.276 | 0.436 | 0.328 | 0.549 | 0.766 | 0.149 | 0.301 | 0.286 | 0.387
6 | RERF-LC-KJ | 0.73 | 0.938 | 0.818 | 0.742 | 0.86 | 0.767 | 0.699 | 0.669 | 0.873 | 0.899 | 0.707 | 0.648 | 0.919 | 0.963 | 0.945 | 0.409 | 1.16 | 1.05 | 1.11 | 0.86
7 | NCI-H1651 | 0.933 | 1.02 | 0.881 | 0.782 | 0.945 | 0.948 | 0.852 | 0.853 | 0.38 | 0.426 | 0.43 | 0.347 | 0.193 | 0.166 | 0.167 | 0.163 | 0.469 | 0.457 | 0.463 | 0.511
8 | EPLC-272H | 1 | – | 0.905 | 0.93 | 0.984 | – | 0.922 | 0.813 | 0.436 | 0.329 | 0.274 | 0.267 | 0.932 | 0.681 | 0.352 | 0.325 | 0.215 | 0.337 | 0.234 | 0.259
9 | SW 1573 | 0.766 | 0.734 | 1.01 | 0.674 | 0.832 | 0.887 | 0.584 | 0.667 | 0.512 | 0.456 | 0.452 | 0.161 | 0.673 | 0.531 | 0.669 | 0.238 | – | – | – | –
10 | NCI-H522 | – | – | – | – | – | – | – | – | 0.972 | 0.769 | 0.764 | 0.849 | 0.616 | 0.586 | 0.692 | 0.658 | 0.716 | 0.811 | 0.777 | 0.785
11 | NCI-H1395 | 1.3 | 0.956 | 0.663 | 0.809 | – | – | – | – | 0.368 | 0.435 | 0.397 | 0.32 | 0.452 | 0.468 | 0.449 | 0.501 | 0.375 | 0.427 | 0.39 | 0.381
12 | ChaGo-K-1 | – | – | – | – | 1.11 | 1.14 | 1.05 | 0.961 | 0.5 | 0.586 | 0.507 | 0.546 | 0.424 | 0.447 | 0.415 | 0.311 | 0.797 | 0.864 | 0.858 | 0.815
13 | NCI-H2228 | 0.787 | 0.857 | 0.828 | 0.362 | 0.635 | 0.5 | 0.572 | 0.288 | 0.568 | 0.594 | 0.388 | 0.32 | 0.788 | 0.74 | 0.559 | 0.311 | – | – | – | –
14 | NCI-H1650 | – | – | – | – | 0.98 | 0.969 | 0.786 | 0.591 | 0.317 | 0.276 | 0.291 | 0.258 | 0.903 | 0.713 | 0.711 | 0.814 | – | – | – | –
15 | UMC-11 | 1.02 | 1.14 | 1.02 | 0.354 | 0.608 | 0.584 | 0.322 | 0.0915 | 0.412 | 0.407 | 0.291 | 0.169 | 0.381 | 0.32 | 0.861 | 0.27 | – | – | – | –
16 | IA-LM | 0.844 | 0.636 | 0.614 | 0.666 | 0.78 | 0.936 | 1.32 | 0.546 | – | – | – | – | 0.783 | 0.797 | 0.768 | 0.757 | – | – | – | –
17 | COR-L23 | 0.882 | 0.838 | 0.98 | 0.356 | 0.724 | 0.703 | 0.466 | 0.204 | 0.533 | 0.496 | 0.382 | 0.298 | 0.328 | 0.311 | 0.247 | 0.166 | – | – | – | –
18 | NCI-H1793 | 0.675 | 0.775 | 0.647 | 0.613 | – | – | – | – | 0.408 | 0.403 | 0.361 | 0.356 | 0.972 | 0.856 | 0.928 | 0.804 | 0.425 | 0.447 | 0.484 | 0.487
19 | NCI-H2023 | 0.543 | 0.575 | 0.45 | 0.352 | 0.592 | 0.626 | 0.269 | 0.282 | 0.5 | 0.54 | 0.306 | 0.302 | 0.461 | 0.494 | 0.403 | 0.26 | – | – | – | –
